We go through 4 molecules from ChEMBL document CHEMBL3526096, “Species differences in biliary clearance and possible relevance of hepatic uptake and efflux transporters involvement” (Drug Metab Dispos, 2013).

Data set [1] deals with Homo sapiens. Briefly: Total biliary clearance in iv dosed human after 6 hrs by T-tube method. It counts as ADME, organism-based, Bile. To be noted: in vivo.
For data set [2], the system named is Homo sapiens. Briefly: Unbound biliary clearance in iv dosed human after 6 hrs. To be noted: in vivo. In kind it is ADME, organism-based, Bile.
The subject of data set [3] is Rattus norvegicus. Briefly: Total biliary clearance in iv dosed Wistar rat. In kind it is ADME, organism-based, Bile. The note with it: in vivo.
For data set [4], the system named is Rattus norvegicus. Briefly: Unbound biliary clearance in iv dosed Wistar rat. To be noted: in vivo. It counts as ADME, organism-based, Bile.
A short description of data set [5]: Drug excretion in iv dosed Wistar rat assessed as compound excreted into bile. It counts as ADME, organism-based. The note with it: read-out: Drug excretion.
A short description of data set [6]: Drug excretion in iv dosed human assessed as compound excreted into bile after 6 hrs. It counts as ADME, organism-based. The note with it: read-out: Drug excretion.
Data set [7] relates to Homo sapiens. Briefly: Total biliary clearance in iv dosed human after 7 hrs by duodenal perfusion method. To be noted: in vivo. It counts as ADME, organism-based, Bile.
The subject of data set [8] is Homo sapiens. The experiment in a line: Unbound biliary clearance in iv dosed human after 7 hrs by duodenal perfusion method. To be noted: in vivo. It counts as ADME, organism-based, Bile.
Data set [9] has as its system Rattus norvegicus. The experiment in a line: Total biliary clearance in iv dosed rat. In kind it is ADME, organism-based, Bile. To be noted: in vivo.
In data set [10] the test system is Rattus norvegicus. The experiment in a line: Unbound biliary clearance in iv dosed rat. In kind it is ADME, organism-based, Bile. To be noted: in vivo.
The subject of data set [11] is Canis familiaris. The experiment in a line: Total biliary clearance in iv dosed dog. In kind it is ADME, organism-based, Canis lupus familiaris, Bile. The note with it: in vivo.
Data set [12] concerns Canis familiaris. Briefly: Unbound biliary clearance in iv dosed dog. It counts as ADME, organism-based, Canis lupus familiaris, Bile. The note with it: in vivo.
A short description of data set [13]: Drug excretion in iv dosed human assessed as compound excreted into bile after 7 hrs by duodenal perfusion method. It counts as ADME, organism-based. To be noted: read-out: Drug excretion.
Data set [14] can be described thus: Drug excretion in iv dosed rat assessed as compound excreted into bile. In kind it is ADME, organism-based. The note with it: read-out: Drug excretion.
A short description of data set [15]: Drug excretion in iv dosed dog assessed as compound excreted into bile. In kind it is ADME, organism-based, Canis lupus familiaris. To be noted: read-out: Drug excretion.
In data set [16] the test system is Homo sapiens. Briefly: Total biliary clearance in human at 200 mg, po after 24 hrs by T-tube method. In kind it is ADME, organism-based, Bile. To be noted: in vivo.
The test system of data set [17] is Homo sapiens. Briefly: Unbound biliary clearance in human at 200 mg, po after 24 hrs by T-tube method. The note with it: in vivo. It counts as ADME, organism-based, Bile.
The nature of data set [18]: Drug excretion in human assessed as compound excreted into bile at 200 mg, po after 24 hrs by T-tube method. In kind it is ADME, organism-based. To be noted: read-out: Drug excretion.
Data set [19] is described as follows: Drug excretion in iv dosed human assessed as compound excreted into bile by T-tube method. It counts as ADME, organism-based. The note with it: read-out: Drug excretion.

Molecules are shown by their SMILES.

Consider `Cn1nnnc1SCC1=C(C(=O)O)N2C(=O)[C@@H](NC(=O)[C@H](O)c3ccccc3)[C@H]2SC1` [CEFAMANDOLE], for which the CL in the data set on Homo sapiens [1] was 0.012 mL/min/kg; in the data set with Rattus norvegicus [3] it was 5 mL/min/kg. Further, the CL free in the data set with Homo sapiens [2] came out at 0.048 mL/min/kg; in the data set with Rattus norvegicus [4], 29.41 mL/min/kg. In addition, in [5], the dose excreted was found to be 33%. Moreover, the dose excreted at 6 h in data set [6] worked out at 0.4%.
As for `CO[C@@]1(NC(=O)C2SC(=C(C(N)=O)C(=O)O)S2)C(=O)N2C(C(=O)O)=C(CSc3nnnn3C)CS[C@@H]21` (some centres undefined) [CEFOTETAN], the values for the CL in the data set on Homo sapiens [7], in the data set on Rattus norvegicus [9] and in the data set on Canis familiaris [11] were 0.048 mL/min/kg, 6.14 mL/min/kg and 0.696 mL/min/kg, respectively. Also, the CL free in the data set on Homo sapiens [8] was determined as 0.32 mL/min/kg; with Rattus norvegicus [10], 8.771 mL/min/kg; with Canis familiaris [12], 1.141 mL/min/kg. Moreover, in data set [13], the dose excreted at 7 h was 11%. Besides, the results for the dose excreted in data set [14] and in data set [15] were 48% and 17%, respectively.
For the molecule `C=CC1=C(C(=O)O)N2C(=O)[C@@H](NC(=O)/C(=N\OCC(=O)O)c3csc(N)n3)[C@H]2SC1` [CEFIXIME], the CL in the data set on Homo sapiens [16] stood at 0.14 mL/min/kg; in the data set on Rattus norvegicus [9] it was 1 mL/min/kg. Besides, the CL free in the data set on Homo sapiens [17] is 0.452 mL/min/kg; in the data set on Rattus norvegicus [10], 7.143 mL/min/kg. For the same molecule, the dose excreted in data set [14] is 41%. The dose excreted at 24 h in data set [18] came to 11%.
As to `Cc1nnc(SCC2=C(C(=O)O)N3C(=O)[C@@H](NC(=O)Cn4cnnn4)[C@H]3SC2)s1` [CEFAZOLIN], the dose excreted in [14] amounted to 30%; in [15], 2%; in data set [19], 0.1%.
